Tests used:
[1] = xn = mol fraction of the nth substance listed; conditions: 318.15 K, 101.3 kPa, Liquid
[2] = excess molar enthalpy (molar enthalpy of mixing); xn = mol fraction of the nth substance listed; conditions: 318.15 K, 101.3 kPa, Liquid

CCCOC(C)=O [propyl ethanoate] + CCCCCCCCC
Conditions | excess molar enthalpy, [2] [kcal/mol] | excess molar volume, [1] [m3/mol]
x1 = 0.0866 | 0.109 | 3.76e-07
x1 = 0.1486 | – | 5.74e-07
x1 = 0.1795 | 0.191 | –
x1 = 0.2182 | – | 7.77e-07
x1 = 0.2657 | 0.255 | –
x1 = 0.2774 | – | 8.96e-07
x1 = 0.344 | 0.294 | –
x1 = 0.3451 | – | 9.99e-07
x1 = 0.4053 | – | 1.075e-06
x1 = 0.4115 | 0.318 | –
x1 = 0.4561 | – | 1.101e-06
x1 = 0.4797 | 0.33 | –
x1 = 0.5089 | – | 1.111e-06
x1 = 0.5358 | 0.328 | –
x1 = 0.5631 | – | 1.094e-06
x1 = 0.5815 | 0.321 | –
x1 = 0.6115 | – | 1.058e-06
x1 = 0.6251 | 0.307 | –
x1 = 0.6577 | – | 1.012e-06
x1 = 0.6703 | 0.287 | –
x1 = 0.7051 | – | 9.38e-07
x1 = 0.7182 | 0.262 | –
x1 = 0.7328 | – | 8.95e-07
x1 = 0.7662 | 0.233 | –
x1 = 0.8182 | 0.197 | –
x1 = 0.8254 | – | 6.64e-07
x1 = 0.8684 | 0.155 | –
x1 = 0.8966 | – | 4.35e-07
x1 = 0.9158 | 0.105 | –
x1 = 0.9496 | – | 2.29e-07
x1 = 0.9598 | 0.0553 | –

COC(C)=O [methyl ethanoate] + CCCCCCC
Conditions | excess molar enthalpy [kcal/mol] | excess molar volume [m3/mol]
[1], x1 = 0.096 | – | 6.73e-07
[1], x1 = 0.1583 | – | 9.83e-07
[1], x1 = 0.2293 | – | 1.293e-06
[1], x1 = 0.2947 | – | 1.495e-06
[1], x1 = 0.3534 | – | 1.597e-06
[1], x1 = 0.408 | – | 1.665e-06
[1], x1 = 0.4619 | – | 1.705e-06
[1], x1 = 0.5159 | – | 1.699e-06
[1], x1 = 0.5572 | – | 1.659e-06
[1], x1 = 0.6064 | – | 1.605e-06
[1], x1 = 0.6501 | – | 1.535e-06
[1], x1 = 0.6915 | – | 1.451e-06
[1], x1 = 0.7275 | – | 1.345e-06
[1], x1 = 0.7645 | – | 1.228e-06
[1], x1 = 0.8471 | – | 8.83e-07
[1], x1 = 0.9111 | – | 5.53e-07
[1], x1 = 0.9577 | – | 2.83e-07
[2], x1 = 0.0778 | 0.136 | –
[2], x1 = 0.1534 | 0.243 | –
[2], x1 = 0.2251 | 0.331 | –
[2], x1 = 0.2785 | 0.378 | –
[2], x1 = 0.3445 | 0.426 | –
[2], x1 = 0.4038 | 0.451 | –
[2], x1 = 0.4555 | 0.461 | –
[2], x1 = 0.5034 | 0.465 | –
[2], x1 = 0.5451 | 0.461 | –
[2], x1 = 0.5759 | 0.456 | –
[2], x1 = 0.6498 | 0.428 | –
[2], x1 = 0.6832 | 0.416 | –
[2], x1 = 0.7322 | 0.389 | –
[2], x1 = 0.7698 | 0.356 | –
[2], x1 = 0.8184 | 0.313 | –
[2], x1 = 0.873 | 0.25 | –
[2], x1 = 0.9036 | 0.189 | –
[2], x1 = 0.9534 | 0.108 | –

CCCCCCCCCCCCCCCCC [heptadecane] + CCCCOC(C)=O
Conditions | excess molar enthalpy [kcal/mol] | excess molar volume [m3/mol]
[1], x2 = 0.0632 | – | 1.97e-07
[1], x2 = 0.104 | – | 3.47e-07
[1], x2 = 0.1206 | – | 3.85e-07
[1], x2 = 0.1949 | – | 5.9e-07
[1], x2 = 0.2755 | – | 7.8e-07
[1], x2 = 0.3444 | – | 9e-07
[1], x2 = 0.4115 | – | 9.79e-07
[1], x2 = 0.4696 | – | 1.048e-06
[1], x2 = 0.515 | – | 1.082e-06
[1], x2 = 0.5713 | – | 1.082e-06
[1], x2 = 0.6623 | – | 1.03e-06
[1], x2 = 0.7646 | – | 9.06e-07
[1], x2 = 0.842 | – | 6.95e-07
[1], x2 = 0.8976 | – | 5.2e-07
[1], x2 = 0.9384 | – | 3.47e-07
[1], x2 = 0.9717 | – | 1.79e-07
[2], x2 = 0.0954 | 0.11 | –
[2], x2 = 0.1878 | 0.201 | –
[2], x2 = 0.2686 | 0.269 | –
[2], x2 = 0.3397 | 0.318 | –
[2], x2 = 0.4009 | 0.349 | –
[2], x2 = 0.4599 | 0.371 | –
[2], x2 = 0.5118 | 0.382 | –
[2], x2 = 0.5532 | 0.382 | –
[2], x2 = 0.5903 | 0.381 | –
[2], x2 = 0.5962 | 0.381 | –
[2], x2 = 0.6293 | 0.369 | –
[2], x2 = 0.6674 | 0.352 | –
[2], x2 = 0.7073 | 0.332 | –
[2], x2 = 0.7491 | 0.304 | –
[2], x2 = 0.7926 | 0.271 | –
[2], x2 = 0.8356 | 0.232 | –
[2], x2 = 0.8781 | 0.187 | –
[2], x2 = 0.9208 | 0.133 | –
[2], x2 = 0.9615 | 0.0716 | –
